{
  "source": "patent US5670479A",
  "about": "“α-ketoamide derivatives as inhibitors of thrombosis” (Corvas International, Inc., priority 1994, dated 1997)",
  "key": {"[1]": {"molecular_target": "T1, a-thrombin (Homo sapiens, UniProt P00734)", "experiment": "Inhibition of fluid-phase thrombin (FPA generation in citrated plasma)", "type": "biochemical", "parameters": "Purified human a-thrombin; purchased Enzyme Research Laboratories, Inc", "conditions": "60 min, 37° C., compound 8 18.75 nM, Hirulog-1 500 nM, rHIR 4 nM, FIG. 5A", "experimental": "I. et.al. J. Clin. Invest., 86: 385-391 (1990). Human a-thrombin (2 U/ml) was incubated with citrated plasma for 60 minutes at 37° C. in the absence or presence of varying concentrations of each of the inhibitors. At timed intervals, 100 μl aliquots were removed and the reaction was terminated by the addition of […] (5 μM, final concentration). Unreacted fibrinogen was then precipitated with ethanol, and the ethanol supernatants were assayed for fibrinopeptide A (FPA). Thrombin addition to plasma results in rapid FPA generation which reaches a plateau in minutes as the thrombin is complexed and inactivated by fluid-phase antiproteases.(e.g. antithrombin III)."}, "[2]": {"molecular_target": "T1, a-thrombin", "experiment": "Amidolytic thrombin assay (inhibitor constant Ki, Ki*)", "type": "biochemical", "parameters": "Purified human a-thrombin; purchased Enzyme Research Laboratories, Inc", "conditions": "human a-thrombin 0.25 nM, Pefachrome t-PA substrate, HBSA pH 7.5", "experimental": "The ability of the compounds of the present invention to act as inhibitors of thrombin catalytic activity in comparison to Hirulog-1 (compound 25) was assessed by determining their inhibition constant, Ki.\nEnzyme activity was determined using the chromogenic substrate Pefachrome t-PA (CH3 SO2 -D-hexahydrotyrosine-glycyl-L-arginine-p-nitroaniline, obtained from Pentapharm Ltd.). The substrate was reconstituted in deionized water prior to use.\nKi values were determined for test compounds using the following methodologies:\nThe assay was conducted by combining in appropriate wells of a Corning microtiter plate, […], […] of the test compound at a specified concentration diluted in HBSA (or HBSA alone for Vo(uninhibited velocity) measurement), and 50 mL of the chromogenic substrate diluted in HBSA. […] Velocities of Pefachrome-tPA substrate hydrolysis which occurred over a 40 minute time period was measured by the change in absorbance at 405 nm using a Thermo Max® Kinetic Microplate Reader. […]\nThe initial velocity of Pefachrome t-PA hydrolysis was measured by the change in absorbance at 405 nm using a Thermo Max® Kinetic Microplate Reader over a 2 minute period in which less than 5% of the added substrate was utilized. […]\nKi* was determined by fitting Vs/Vo verses [I] using Equation 1 by non-linear regression analysis. […]"}, "[3]": {"test_system": "baboons", "conditions": "baboon, other direct antithrombins evaluated earlier in this model, cited from earlier work"}, "[4]": {"molecular_target": "T2, clot-bound a-thrombin (Homo sapiens, UniProt P00734)", "T2 construct": "from tissue; host or cells: washed clots formed from citrated plasma by adding CaCl2", "experiment": "Inhibition of clot-bound thrombin (FPA generation in citrated plasma)", "type": "biochemical", "experimental": "Plasma clots were formed around wire hooks by the addition of CaCl2 (final concentration, 25 mM) to 500 μl aliquots of citrated plasma. After aging the clots for 60 minutes at 37° C. with constant agitation, the clots were washed 10 times with 2 ml aliquots of 0.1M NaCl buffered with 0.05M Tris-HCL, pH 7.4 over an 18 hour period. The washed clots were then incubated in 1 ml aliquots of citrated plasma for 60 minutes at 37° C. in the absence or presence of the various inhibitors. At timed intervals, 100 μl aliquots were removed and the reaction was terminated by the addition of the irreversible serine protease inhibitor, D-phenylalanyl-prolinyl-argininyl-CH2 Cl.\nUnreacted fibrinogen was precipitated with ethanol, and the ethanol supernatants were then assayed for FPA."}},
  "note": "pKi: −log10 of the molar value.",
  "data": [
    {"substance": "(D-Phe)-Pro-Arg-Pro-(Gly)4 -Asn-Gly-Asp-Phe-Glu-Glu-Ile-Pro-Glu-Glu-Tyr-Leu-OH [Hirulog-1]", "values": [
      {"measurement": "inhibition of fluid-phase a-thrombin-mediated FPA generation", "setting": "[1]", "result": "only transient inhibition"},
      {"measurement": "pKi", "setting": "[2]", "result": 9.36},
      {"measurement": "Antihemostatic Effects APTT", "setting": "[3]; control 32 sec", "result": "> 300", "unit": "s"},
      {"measurement": "Antihemostatic Effects Bleeding Time", "setting": "[3]; control 4 min", "result": 21, "unit": "min"},
      {"measurement": "inhibition of clot-bound a-thrombin-mediated FPA generation", "setting": "[4]; citrated human plasma, 60 min, 37° C., compound 8 18.75 nM, Hirulog-1 500 nM, rHIR 4 nM, FIG. 5B", "result": "only transiently inhibited FPA generation"},
      {"measurement": "inhibition of clot-bound versus fluid-phase thrombin at 60 minutes incubation", "setting": "[4]; percent inhibition of FPA generation at 60 min, FIG. 6", "result": "less inhibitory activity against clot-bound thrombin"}
    ]}
  ]
}
